Assay results from patent US20230227449A1, “AMIDOPYRIMIDONE DERIVATIVES” (Hoffmann-La Roche Inc., priority 2020, published 2023).

Molecular target: Recombinant human Mat2a (Homo sapiens, UniProt P31153)
Assay: Determination of Mat2A activity (384 well absorbance-based assay, Biomol Green)
Type: biochemical
Settings: 12.5 nM Mat2A, 100 μM ATP and Methionine, 2% DMSO, 120 minutes at RT, absorbance at 635 nm
In short: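 Recombinant human Mat2A (12.5 nM) was preincubated with compound for 15 min at RT in HEPES pH 7.5 buffer with 2% DMSO. The reaction was started with 100 μM each of ATP and methionine and ran 120 min at RT. Phosphate was detected with Biomol Green by absorbance at 635 nm.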

Sequence of Recombinant human Mat2a (P31153 whole entry): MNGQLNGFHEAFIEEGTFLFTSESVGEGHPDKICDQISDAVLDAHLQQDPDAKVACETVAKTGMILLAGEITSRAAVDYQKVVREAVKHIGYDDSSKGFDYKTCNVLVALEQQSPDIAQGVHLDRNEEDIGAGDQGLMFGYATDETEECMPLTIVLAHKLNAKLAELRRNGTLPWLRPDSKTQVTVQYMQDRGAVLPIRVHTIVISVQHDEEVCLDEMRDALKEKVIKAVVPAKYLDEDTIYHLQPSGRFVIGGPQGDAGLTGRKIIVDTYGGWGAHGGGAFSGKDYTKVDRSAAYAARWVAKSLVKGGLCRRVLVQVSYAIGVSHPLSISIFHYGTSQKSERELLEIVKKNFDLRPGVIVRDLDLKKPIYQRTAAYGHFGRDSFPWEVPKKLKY

Row | Structure (SMILES) | IC50 [nM]
1 | Nc1nc(=O)n(-c2ccccc2C(F)(F)F)c2nc(C3CC3)ccc12 [Example 132, 4-amino-7-cyclopropyl-1-(2-(trifluoromethyl)phenyl)pyrido[2,3-d]pyrimidin-2 (1H)-one] | < 13
2 | Cc1cccc(-n2c(=O)nc(N)c3ccc(OC(F)F)cc32)c1F [Example 133, 4-amino-7-(difluoromethoxy)-1-(2-fluoro-3-methylphenyl)quinazolin-2 (1H)-one] | 26
3 | Cc1cccc(-n2c(=O)nc(N)c3ccc(OC(F)F)cc32)c1 [Example 134, 4-amino-7-(difluoromethoxy)-1-(m-tolyl)quinazolin-2 (1H)-one] | 20
4 | Nc1nc(=O)n(-c2cccnc2Cl)c2cc(OC(F)F)ccc12 [Example 137, 4-amino-1-(2-chloropyridin-3-yl)-7-(difluoromethoxy)quinazolin-2 (1H)-one] | < 13
5 | Nc1nc(=O)n([C@@H]2CCCOC23CC3)c2nc(C3CC3)ccc12 [Example 141, 4-amino-7-cyclopropyl-1-[(8R)-4-oxaspiro[2.5]octan-8-yl]pyrido[2,3-d]pyrimidin-2-one] | < 13
6 | Nc1nc(=O)n([C@H]2CCCOC23CC3)c2nc(C3CC3)ccc12 [Example 142, 4-amino-7-cyclopropyl-1-[(8S)-4-oxaspiro[2.5]octan-8-yl]pyrido[2,3-d]pyrimidin-2-one] | < 13
7 | Cc1ccccc1-n1c(=O)nc(N)c2ccc(OC(F)F)cc21 [Example 144, 4-amino-7-(difluoromethoxy)-1-(o-tolyl)quinazolin-2 (1H)-one] | < 13
8 | Nc1nc(=O)n(-c2ccc(F)c(F)c2)c2nc(C3CC3)ccc12 [Example 147, 4-amino-7-cyclopropyl-1-(3,4-difluorophenyl)pyrido[2,3-d]pyrimidin-2 (1H)-one] | 31
9 | Nc1nc(=O)c(-c2ccccc2Cl)c2cc(C(F)(F)F)ccn12 [Example 149, 1-amino-4-(2-chlorophenyl)-6-(trifluoromethyl)pyrido[1,2-c]pyrimidin-3-one] | 24
10 | Nc1nc(=O)n(C2CCCOC23CC3)c2cc(OC(F)F)ccc12 (stereo not shown) [Example 150, 4-amino-7-(difluoromethoxy)-1-(4-oxaspiro[2.5]octan-8-yl)quinazolin-2 (1H)-one] | 130
11 | N#Cc1cccc(-n2c(=O)nc(N)c3ccc(C4CC4)nc32)c1 [Example 151, 3-(4-amino-7-cyclopropyl-2-oxopyrido[2,3-d]pyrimidin-1 (2H)-yl)benzonitrile] | < 13
12 | Nc1nc(=O)n(-c2cccc(Cl)c2)c2nc(C3CC3)ccc12 [Example 152, 4-amino-1-(3-chlorophenyl)-7-cyclopropylpyrido[2,3-d]pyrimidin-2 (1H)-one] | 14
13 | CCNc1ccc2c(N)nc(=O)n(-c3ccccc3C)c2c1 [Example 153, 4-amino-7-(ethylamino)-1-(o-tolyl)quinazolin-2-one] | 17
14 | Nc1nc(=O)n(-c2cc(F)ccc2F)c2nc(C3CC3)ccc12 [Example 154, 4-amino-7-cyclopropyl-1-(2,5-difluorophenyl)pyrido[2,3-d]pyrimidin-2 (1H)-one] | 20
15 | Nc1nc(=O)n(-c2ccc(F)cc2Cl)c2nc(C3CC3)ccc12 [Example 155, 4-amino-1-(2-chloro-4-fluorophenyl)-7-cyclopropylpyrido[2,3-d]pyrimidin-2 (1H)-one] | 16
16 | Cc1c(C#N)cccc1-n1c(=O)nc(N)c2ccc(OC(F)(F)F)cc21 [Example 158, 3-[4-amino-2-oxo-7-(trifluoromethoxy)quinazolin-1-yl]-2-methylbenzonitrile] | 25
17 | Cc1c(F)cccc1-n1c(=O)nc(N)c2ccc(OC(F)(F)F)cc21 [Example 159, 4-amino-1-(3-fluoro-2-methylphenyl)-7-(trifluoromethoxy)quinazolin-2-one] | 19
18 | Nc1nc(=O)n(-c2cccc3c2CCO3)c2cc(OC(F)(F)F)ccc12 [Example 160, 4-amino-1-(2,3-dihydro-1-benzofuran-4-yl)-7-(trifluoromethoxy)quinazolin-2-one] | 18
19 | Nc1nc(=O)n(-c2cccc3c2CCO3)c2nc(C(F)(F)F)ccc12 [Example 162, 4-amino-1-(2,3-dihydrobenzofuran-4-yl)-7-(trifluoromethyl)pyrido[2,3-d]pyrimidin-2 (1H)-one] | < 13
20 | Nc1nc(=O)n(-c2cccc(OC(F)(F)F)n2)c2nc(C3CC3)ccc12 [Example 163, 4-amino-7-cyclopropyl-1-[6-(trifluoromethoxy)pyridin-2-yl]pyrido[2,3-d]pyrimidin-2-one] | 31
21 | Cc1c(F)cccc1-n1c(=O)nc(N)c2ccc(C(F)(F)F)nc21 [Example 165, 4-amino-1-(3-fluoro-2-methylphenyl)-7-(trifluoromethyl)pyrido[2,3-d]pyrimidin-2 (1H)-one] | < 13

Continued, values first:

Row | IC50 [nM] | Structure (SMILES)
22 | < 13 | Cc1c(Cl)cccc1-n1c(=O)nc(N)c2ccc(C3CC3)nc21 [Example 129, 4-amino-1-(3-chloro-2-methylphenyl)-7-cyclopropylpyrido[2,3-d]pyrimidin-2-one]
23 | < 13 | Cc1cccc(-n2c(=O)nc(N)c3ccc(C4CC4)nc32)c1Cl [Example 130, 4-amino-1-(2-chloro-3-methylphenyl)-7-cyclopropylpyrido[2,3-d]pyrimidin-2-one]
24 | < 13 | Cc1c(CF)cccc1-n1c(=O)nc(N)c2ccc(C3CC3)nc21 [Example 131, 4-amino-7-cyclopropyl-1-(3-(fluoromethyl)-2-methylphenyl)pyrido[2,3-d]pyrimidin-2 (1H)-one]
25 | < 13 | Cc1cccc(-n2c(=O)nc(N)c3ccc(C4CC4)nc32)c1C [Example 138, 4-amino-7-cyclopropyl-1-(2,3-dimethylphenyl)pyrido[2,3-d]pyrimidin-2 (1H)-one]
26 | < 13 | Nc1nc(=O)n(-c2cccc3[nH]ncc23)c2nc(C3CC3)ccc12 [Example 139, 4-amino-7-cyclopropyl-1-(1H-indazol-4-yl)pyrido[2,3-d]pyrimidin-2 (1H)-one]
27 | < 13 | N#Cc1cccc(-n2c(=O)nc(N)c3ccc(C4CC4)nc32)c1Cl [Example 143, 3-(4-amino-7-cyclopropyl-2-oxopyrido[2,3-d]pyrimidin-1 (2H)-yl)-2-chlorobenzonitrile]
28 | 21 | Nc1nc(=O)n(-c2cc(F)ccc2Cl)c2nc(C3CC3)ccc12 [Example 156, 4-amino-1-(2-chloro-5-fluorophenyl)-7-cyclopropylpyrido[2,3-d]pyrimidin-2-one]
29 | 15 | Nc1nc(=O)n(-c2cccc3c2CCN3)c2nc(C3CC3)ccc12 [Example 157, 4-amino-7-cyclopropyl-1-(2,3-dihydro-1H-indol-4-yl)pyrido[2,3-d]pyrimidin-2-one]
30 | < 13 | Nc1nc(=O)n(-c2cccc(Cl)c2F)c2nc(C3CC3)ccc12 [Example 161, 4-amino-1-(3-chloro-2-fluorophenyl)-7-cyclopropylpyrido[2,3-d]pyrimidin-2-one]
31 | < 13 | Nc1nc(=O)n(-c2cccc3[nH]ccc23)c2nc(C3CC3)ccc12 [Example 164, 4-amino-7-cyclopropyl-1-(1H-indol-4-yl)pyrido[2,3-d]pyrimidin-2-one]
